In patent US9006194B2, “Compositions and methods for diminishing viral infection and inflammation associated with viral infection” (Drexel University, priority 2008, dated 2015):

Test system: CD4+ and CD8+ T cells
Experiment: Apoptosis assay of primary human CD4+ and CD8+ T lymphocytes exposed to Type 1 interferon (CD95/Fas-induced, Annexin V)
Conditions: 5 ng/mL for 72 hours, resting or anti-CD3 activated T cells, n=5 healthy donors
Protocol: T cells were activated with anti-CD3 antibody. n=5 healthy donors for each group.
Primary human PBMC were isolated were isolated by density centrifugation using Ficoll from heparinized venous blood of HIV-1-seronegative adult donors and seeded into 24-well plates at a concentration of 1×10^6 cells/mL/well. Freshly isolated PBMC were treated with 5 ng/mL recombinant IFN-α (PBL Interferon Source; Piscataway, N.J.) in the presence or absence of monoclonal anti-CD3 antibody (OKT3). Anti-CD3 was immobilized by coating plates with 0.1 μg/mL in PBS for 2 hours. Following a 3 day incubation period, PBMC were harvested and transferred to 24-well plates that were uncoated or coated with 5 μg/mL monoclonal anti-CD95 antibody (IgM, CH11; Immunotech, Brea, Calif.) for 14 hour at 37° C. in 5% CO2. Cells were subsequently harvested, counted and stained for flow cytometry analysis. The following combinations of mAb were used to identify CD4+ and CD8+ T cell subpopulations: anti-CD3-PE/anti-CD4-APC/anti-CD8-PerCP; and for the apoptosis studies: Annexin V-Cy5.5 (eBioscience, San Diego, Calif.). One million cells were stained as previously described (Mueller Y M et al., 2001, Immunity. 15:871-882) with the combination of antibodies in HBSS (Cellgro, Herndon, Va.), 3% FBS, 0.02% NaN3 for 15 min on ice, washed twice with HBSS, 3% FBS, 0.02% NaN3 and fixed with 1% paraformaldehyde. […]

## IFN-α
  CD95/Fas-induced apoptosis of T cells (in words): increase
